Data published in ChEMBL document CHEMBL1136103, “Structure-based drug design of pyrazinone antithrombotics as selective inhibitors of the tissue factor VIIa complex” (Bioorg Med Chem Lett, 2003).

What was measured:
Coagulation factor X = Coagulation factor X (Homo sapiens, UniProt P00742); test: Inhibitory activity against coagulation factor X
Serine protease 1 = Serine protease 1 (Homo sapiens, UniProt P07477)
Sequence of Serine protease 1 (P07477 whole entry): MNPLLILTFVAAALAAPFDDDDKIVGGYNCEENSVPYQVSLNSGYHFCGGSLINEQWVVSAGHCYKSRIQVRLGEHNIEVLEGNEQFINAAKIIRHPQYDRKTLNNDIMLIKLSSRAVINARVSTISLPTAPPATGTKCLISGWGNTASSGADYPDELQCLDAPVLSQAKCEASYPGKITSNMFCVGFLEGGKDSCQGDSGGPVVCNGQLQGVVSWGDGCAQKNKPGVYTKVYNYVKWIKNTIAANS
Description: Inhibitory activity against trypsin

Sequence of Coagulation factor X (P00742 41-179 limits assumed): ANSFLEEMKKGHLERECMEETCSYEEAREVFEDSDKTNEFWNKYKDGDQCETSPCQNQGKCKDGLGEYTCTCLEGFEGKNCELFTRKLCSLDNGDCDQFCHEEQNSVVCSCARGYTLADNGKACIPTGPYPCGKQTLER
Sequence of Coagulation factor X (P00742 235-488 limits assumed): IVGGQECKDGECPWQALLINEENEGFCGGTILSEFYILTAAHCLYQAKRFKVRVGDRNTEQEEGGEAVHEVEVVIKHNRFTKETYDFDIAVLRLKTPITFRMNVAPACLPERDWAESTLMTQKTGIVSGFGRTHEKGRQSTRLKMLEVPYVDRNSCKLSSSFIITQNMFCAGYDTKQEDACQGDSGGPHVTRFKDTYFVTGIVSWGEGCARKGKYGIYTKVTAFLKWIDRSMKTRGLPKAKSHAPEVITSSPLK

Row | IC50 (Coagulation factor X) [µM] | IC50 (Serine protease 1) [µM] | SMILES
1 | > 100 | 0.032 | N=C(N)c1ccc(CNC(=O)Cn2c(-c3cccc(N)c3)c(Cl)nc(NC3CCC3)c2=O)cc1
2 | 1.41 | 0.42 | N=C(N)NCCC[C@H](NC(=O)Cn1c(-c2ccccc2)c(Cl)nc(NCCc2ccccc2)c1=O)C(=O)c1nccs1
3 | > 100 | 0.064 | CC(C)Nc1nc(Cl)c(-c2cc(N)cc(C(=O)O)c2)n(CC(=O)NCc2ccc(C(=N)N)cc2)c1=O
4 | – | 0.47 | N=C(N)NCCC[C@H](NC(=O)Cn1c(Cc2ccccc2)c(Cl)nc(NCCc2ccccc2)c1=O)C(=O)c1nccs1
